{"source": "patent US6914045B2", "about": "“Glycopeptide antibiotics” (Wyeth Holdings Corporation, priority 2001, dated 2005)", "key": {"[1]": {"system": "Staphylococcus aureus-SMITH (GC 4543)", "test": "acute lethal infection in mice", "type": "in vivo", "conditions": "acute lethal infection, female CD-1 mice, intraperitoneal challenge, intravenous 30 min. after infection, 7 day survival", "method_in_brief": "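Mice (female CD-1, 20+/−2 gm) receive bacteria ip in broth or hog gastric mucin, then test agent iv after 30 min. Median effective dose is calculated from 7 day survival pooled across 3 tests.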"}, "[2]": {"system": "Escherichia coli", "test": "in vitro antibacterial evaluation, MIC by broth dilution", "type": "cell-based", "method_in_brief": "(§1)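 Step 1: dilute antibiotic across 64-0.06 μg/mL in Muller-Hinton II […]. Step 2: inoculate at 5×10^5 CFU/mL.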"}, "[3]": {"system": "Streptococcus sp.", "test": "in vitro antibacterial evaluation, MIC by broth dilution", "type": "cell-based", "conditions": "broth dilution, 18 hours at 35° C.", "method_in_brief": "as §1"}, "[4]": {"system": "Enterococcus sp.", "test": "in vitro antibacterial evaluation, MIC by broth dilution", "type": "cell-based", "conditions": "broth dilution, 18 hours at 35° C.; for MIC Enterococcus faecalis (ATCC 29212): strain ATCC 29212; for MIC Enterococcus faecium (GC 2243): strain GC 2243; for MIC Enterococcus faecalis (GC 4552): strain GC 4552; for MIC Enterococcus faecalis (GC 4553): strain GC 4553; for MIC Enterococcus faecalis (GC 4554): strain GC 4554; for MIC Enterococcus faecium (GC 4556): strain GC 4556; for MIC Enterococcus faecium (GC 4557): strain GC 4557; for MIC Enterococcus avium (GC 4558): strain GC 4558; for MIC Enterococcus faecalis (GC 6189): strain GC 6189", "method_in_brief": "as §1"}, "[5]": {"system": "Staphylococcus sp.", "test": "in vitro antibacterial evaluation, MIC by broth dilution", "type": "cell-based", "conditions": "broth dilution, 18 hours at 35° C.; for MIC Staphylococcus aureus (GC 1131): strain GC 1131", "method_in_brief": "as §1"}}}
{"molecule": "CC(c1ccccc1)C1NC(=O)CNC(=O)C(CO)NC(=O)C(C(O)C2CNC(=N)N2C2OC(CO)C(O)C(O)C2O)NC(=O)C(C(O)C2CNC(=N)N2)NC(=O)C(Cc2ccc(OC3OC(CO)C(OC4OC5COC(c6cccc(-c7ccccc7)c6)OC5C(O)C4O)C(O)C3O)cc2)NC1=O", "note": "(stereo not drawn) [Example 154, Cyclo[glycyl-β-methylphenylalanyl-O-[4-O-[4,6-O-(3-phenylbenzylidene)hexopyranosyl]-hexopyranosyl]tyrosyl-3-(2-iminoimidazolidin-4-yl)seryl-3-(3-hexopyranosyl-2-iminoimidazolidin-4-yl)serylseryl]]", "values": [{"measurement": "median effective dose (ED50), Staphylococcus aureus-SMITH (GC 4543)", "setting": "[1]", "result": 0.1, "unit": "mg/kg"}, {"measurement": "MIC Escherichia coli (ATCC 25922)", "setting": "[2]; strain ATCC 25922, 18 hours at 35° C.", "result": 32, "unit": "µg/mL"}, {"measurement": "MIC Escherichia coli (GC 4559)", "setting": "[2]; strain GC 4559, 18 hours at 35° C.", "result": 32, "unit": "µg/mL"}, {"measurement": "MIC Escherichia coli (GC 4560)", "setting": "[2]; strain GC 4560, 18 hours at 35° C.", "result": 2, "unit": "µg/mL"}, {"measurement": "MIC Streptococcus agalactiae (GC 4564)", "setting": "[3]; Streptococcus agalactiae (GC 4564)", "result": "<0.06", "unit": "µg/mL"}, {"measurement": "MIC Streptococcus pneumoniae (ATCC 6301)", "setting": "[3]; Streptococcus pneumoniae (ATCC 6301)", "result": "<0.06", "unit": "µg/mL"}, {"measurement": "MIC Streptococcus pneumoniae (GC 1894)", "setting": "[3]; Streptococcus pneumoniae (GC 1894)", "result": "<0.06", "unit": "µg/mL"}, {"measurement": "MIC Streptococcus pneumoniae (GC 4565)", "setting": "[3]; Streptococcus pneumoniae (GC 4565)", "result": "<0.06", "unit": "µg/mL"}, {"measurement": "MIC Streptococcus pyogenes (GC 4563)", "setting": "[3]; Streptococcus pyogenes (GC 4563)", "result": "<0.06", "unit": "µg/mL"}, {"measurement": "MIC Streptococcus pneumoniae (ATCC 6301)", "setting": "[3]; strain ATCC 6301", "result": "<0.06", "unit": "µg/mL"}, {"measurement": "MIC Streptococcus pneumoniae (GC 1894)", "setting": "[3]; strain GC 1894", "result": "<0.06", "unit": "µg/mL"}, {"measurement": "MIC Streptococcus pyogenes (GC 4563)", "setting": "[3]; strain GC 4563", "result": "<0.06", "unit": "µg/mL"}, {"measurement": "MIC Streptococcus agalactiae (GC 4564)", "setting": "[3]; strain GC 4564", "result": "<0.06", "unit": "µg/mL"}, {"measurement": "MIC Streptococcus pneumoniae (GC 4565)", "setting": "[3]; strain GC 4565", "result": "<0.06", "unit": "µg/mL"}, {"measurement": "MIC Enterococcus faecalis (GC 2242)", "setting": "[4]; Enterococcus faecalis (GC 2242)", "result": 2, "unit": "µg/mL"}, {"measurement": "MIC Enterococcus faecalis (GC 2691)", "setting": "[4]; Enterococcus faecalis (GC 2691)", "result": 2, "unit": "µg/mL"}, {"measurement": "MIC Enterococcus faecalis (GC 3059)", "setting": "[4]; Enterococcus faecalis (GC 3059)", "result": 2, "unit": "µg/mL"}, {"measurement": "MIC Enterococcus faecalis (ATCC 29212)", "setting": "[4]; inoculum 5×10^5 CFU/mL", "result": 2, "unit": "µg/mL"}, {"measurement": "MIC Enterococcus faecium (GC 2243)", "setting": "[4]; inoculum 5×10^5 CFU/mL", "result": 2, "unit": "µg/mL"}, {"measurement": "MIC Enterococcus faecalis (GC 4552)", "setting": "[4]; inoculum 5×10^5 CFU/mL", "result": 2, "unit": "µg/mL"}, {"measurement": "MIC Enterococcus faecalis (GC 4553)", "setting": "[4]; inoculum 5×10^5 CFU/mL", "result": 2, "unit": "µg/mL"}, {"measurement": "MIC Enterococcus faecalis (GC 4554)", "setting": "[4]; inoculum 5×10^5 CFU/mL", "result": 2, "unit": "µg/mL"}, {"measurement": "MIC Enterococcus faecium (GC 4556)", "setting": "[4]; inoculum 5×10^5 CFU/mL", "result": 2, "unit": "µg/mL"}, {"measurement": "MIC Enterococcus faecium (GC 4557)", "setting": "[4]; inoculum 5×10^5 CFU/mL", "result": 2, "unit": "µg/mL"}, {"measurement": "MIC Enterococcus avium (GC 4558)", "setting": "[4]; inoculum 5×10^5 CFU/mL", "result": 1, "unit": "µg/mL"}, {"measurement": "MIC Enterococcus faecalis (GC 6189)", "setting": "[4]; inoculum 5×10^5 CFU/mL", "result": 2, "unit": "µg/mL"}, {"measurement": "MIC Enterococcus faecalis (ATCC 29212)", "setting": "[4]", "result": 2, "unit": "µg/mL"}, {"measurement": "MIC Enterococcus faecalis (GC 2242)", "setting": "[4]; strain GC 2242", "result": 2, "unit": "µg/mL"}, {"measurement": "MIC Enterococcus faecium (GC 2243)", "setting": "[4]", "result": 2, "unit": "µg/mL"}, {"measurement": "MIC Enterococcus faecalis (GC 2691)", "setting": "[4]; strain GC 2691", "result": 2, "unit": "µg/mL"}, {"measurement": "MIC Enterococcus faecalis (GC 3059)", "setting": "[4]; strain GC 3059", "result": 2, "unit": "µg/mL"}, {"measurement": "MIC Enterococcus faecalis (GC 4552)", "setting": "[4]", "result": 2, "unit": "µg/mL"}, {"measurement": "MIC Enterococcus faecalis (GC 4553)", "setting": "[4]", "result": 2, "unit": "µg/mL"}, {"measurement": "MIC Enterococcus faecalis (GC 4554)", "setting": "[4]", "result": 2, "unit": "µg/mL"}, {"measurement": "MIC Enterococcus faecium (GC 4556)", "setting": "[4]", "result": 2, "unit": "µg/mL"}, {"measurement": "MIC Enterococcus faecium (GC 4557)", "setting": "[4]", "result": 2, "unit": "µg/mL"}, {"measurement": "MIC Enterococcus avium (GC 4558)", "setting": "[4]", "result": 1, "unit": "µg/mL"}, {"measurement": "MIC Enterococcus faecalis (GC 6189)", "setting": "[4]", "result": 2, "unit": "µg/mL"}, {"measurement": "MIC Staphylococcus aureus (GC 1131)", "setting": "[5]; inoculum 5×10^5 CFU/mL", "result": 1, "unit": "µg/mL"}, {"measurement": "MIC Staphylococcus aureus (ATCC 29213)", "setting": "[5]; strain ATCC 29213", "result": 1, "unit": "µg/mL"}, {"measurement": "MIC Staphylococcus aureus (GC 1131)", "setting": "[5]", "result": 1, "unit": "µg/mL"}, {"measurement": "MIC Staphylococcus aureus (GC 3051)", "setting": "[5]; strain GC 3051", "result": 1, "unit": "µg/mL"}, {"measurement": "MIC Staphylococcus aureus (GC 3053)", "setting": "[5]; strain GC 3053", "result": 2, "unit": "µg/mL"}, {"measurement": "MIC Staphylococcus aureus (GC 4541)", "setting": "[5]; strain GC 4541", "result": 1, "unit": "µg/mL"}, {"measurement": "MIC Staphylococcus aureus (GC 4542)", "setting": "[5]; strain GC 4542", "result": 1, "unit": "µg/mL"}, {"measurement": "MIC Staphylococcus aureus-SMITH (GC 4543)", "setting": "[5]; strain GC 4543", "result": 1, "unit": "µg/mL"}, {"measurement": "MIC Staphylococcus aureus (GC 4544)", "setting": "[5]; strain GC 4544", "result": 2, "unit": "µg/mL"}, {"measurement": "MIC Staphylococcus aureus (GC 4545)", "setting": "[5]; strain GC 4545", "result": 1, "unit": "µg/mL"}, {"measurement": "MIC Staphylococcus haemolyticus (GC 4546)", "setting": "[5]; strain GC 4546", "result": 1, "unit": "µg/mL"}, {"measurement": "MIC Coagulase Negative Staphylococcus (GC 4547)", "setting": "[5]; strain GC 4547", "result": 2, "unit": "µg/mL"}, {"measurement": "MIC Coagulase Negative Staphylococcus (GC 4548)", "setting": "[5]; strain GC 4548", "result": 0.5, "unit": "µg/mL"}, {"measurement": "MIC Coagulase Negative Staphylococcus (GC 4549)", "setting": "[5]; strain GC 4549", "result": 0.25, "unit": "µg/mL"}, {"measurement": "MIC Coagulase Negative Staphylococcus (GC 4551)", "setting": "[5]; strain GC 4551", "result": 2, "unit": "µg/mL"}, {"measurement": "MIC Coagulase Negative Staphylococcus (GC 6257)", "setting": "[5]; strain GC 6257", "result": 1, "unit": "µg/mL"}, {"measurement": "MIC Staphylococcus aureus-SMITH (GC 4543)", "setting": "[5]; strain SMITH GC 4543", "result": 1, "unit": "µg/mL"}]}
